Test results reported in patent US7863280B2, “Substituted 2-pyridone derivatives, method for their preparation and their use as medicament” (Sanofi-Aventis Deutschland GmbH, priority 2004, dated 2011).

molecular target: recombinantly expressed human PARP-1 enzyme (Homo sapiens, UniProt P09874); experiment: PARP enzyme assay; format: biochemical; conditions: DNA-activated PARP-1, 200 μM NAD, tritium-labeled NAD incorporation, pH=8.0, room temperature, 1 hour
Protocol: Pharmacological Investigations PARP Enzyme Assay
The half-maximum inhibitor concentration is determined by incubating the substances to be tested with the DNA-activated, recombinantly expressed and purified PARP-1 enzyme. Specifically, various concentrations of the test substance are incubated in 50 μl of reaction solution, which contains 50 mM Tris, 5 mM MgCl2, 1 mM DTT, 200 μM NAD, 0.1 mCi/ml tritium-labeled NAD, 0.1 mg/ml DNA, 0.1 mg/ml histones, 2 μg/ml recombinantly expressed human PARP-1 enzyme, pH=8.0, at room temperature for 1 hour. The reaction is stopped by adding 150 μl of 20% trichloroacetic acid, and the radiolabelled protein constituents are precipitated. After incubation on ice for 10 minutes, the labeled, insoluble constituents are separated off through a glass fiber filter and, after washing with 20% trichloroacetic acid three times, the radioactivity incorporated by the PARP-1 enzyme is measured by radioluminescence. Consideration of the incorporation rates determined in this way as a function of the concentration of the test substance results in the half-maximum inhibitor concentration (IC50) as the concentration of the test substance which reduces the incorporation rate to half the maximum value attainable (incubation without inhibitor).

Chain of recombinantly expressed human PARP-1 enzyme (P09874 whole entry): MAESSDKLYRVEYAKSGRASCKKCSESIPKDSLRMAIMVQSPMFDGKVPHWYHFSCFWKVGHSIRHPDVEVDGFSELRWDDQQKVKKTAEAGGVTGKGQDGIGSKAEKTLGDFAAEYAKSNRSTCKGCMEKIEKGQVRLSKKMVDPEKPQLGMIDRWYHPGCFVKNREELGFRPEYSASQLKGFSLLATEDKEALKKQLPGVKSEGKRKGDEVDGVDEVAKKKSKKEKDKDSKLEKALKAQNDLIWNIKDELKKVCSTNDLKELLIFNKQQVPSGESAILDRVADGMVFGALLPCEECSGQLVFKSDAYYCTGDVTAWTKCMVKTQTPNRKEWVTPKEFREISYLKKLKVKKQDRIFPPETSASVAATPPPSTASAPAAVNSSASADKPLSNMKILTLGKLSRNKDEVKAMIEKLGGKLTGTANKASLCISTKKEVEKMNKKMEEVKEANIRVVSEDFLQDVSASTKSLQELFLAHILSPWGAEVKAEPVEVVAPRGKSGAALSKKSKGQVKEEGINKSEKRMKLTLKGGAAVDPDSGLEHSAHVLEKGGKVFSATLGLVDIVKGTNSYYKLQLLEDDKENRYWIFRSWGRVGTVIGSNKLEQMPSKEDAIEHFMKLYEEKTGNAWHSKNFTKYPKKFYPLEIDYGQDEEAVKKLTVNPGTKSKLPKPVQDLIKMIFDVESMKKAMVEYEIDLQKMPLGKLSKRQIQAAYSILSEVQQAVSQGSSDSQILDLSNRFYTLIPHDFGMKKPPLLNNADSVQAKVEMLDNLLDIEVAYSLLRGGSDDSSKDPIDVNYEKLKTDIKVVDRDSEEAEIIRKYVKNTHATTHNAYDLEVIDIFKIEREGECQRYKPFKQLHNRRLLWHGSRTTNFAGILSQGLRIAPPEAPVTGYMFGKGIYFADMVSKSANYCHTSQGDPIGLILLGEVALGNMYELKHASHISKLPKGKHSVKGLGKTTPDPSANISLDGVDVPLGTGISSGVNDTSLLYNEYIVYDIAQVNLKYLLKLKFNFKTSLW

IC50 [µM] | Structure (SMILES)
2.2 | CCc1cc(Nc2cccc(C(N)=O)c2)c(C)[nH]c1=O [Example 2, 3-(5-ethyl-2-methyl-6-oxo-1,6-dihydropyridin-3-ylamino)benzamide]
1.3 | CCc1cc(Nc2cccc(C(C)=O)c2)c(C)[nH]c1=O [Example 3, 5-(3-acetylphenylamino)-3-ethyl-6-methyl-1H-pyridin-2-one]
0.8 | CCc1cc(Nc2cccc(NC(C)=O)c2)c(C)[nH]c1=O [Example 4, N-[3-(5-ethyl-2-methyl-6-oxo-1,6-dihydropyridin-3-ylamino)phenyl]acetamide]
3.9 | CCc1cc(Nc2ccc(C#N)cn2)c(C)[nH]c1=O [Example 13, 6-(5-ethyl-2-methyl-6-oxo-1,6-dihydropyridin-3-ylamino)nicotinonitrile]
9.5 | CCc1cc(Nc2ccncc2)c(C)[nH]c1=O [Example 15, 3-ethyl-6-methyl-5-(pyridin-4-ylamino)-1H-pyridin-2-one]
9.8 | CCc1cc(Nc2cccc(CO)c2)c(C)[nH]c1=O [Example 23, 3-ethyl-5-(3-hydroxymethylphenylamino)-6-methyl-1H-pyridin-2-one]

The next lines start with the compound.

Structure (SMILES) | IC50 [µM]
CCc1cc(Nc2cccc(C#N)c2)c(C)[nH]c1=O [Example 1, 3-(5-ethyl-2-methyl-6-oxo-1,6-dihydropyridin-3-ylamino)benzonitrile] | 9
CCc1cc(Nc2ccc(S(N)(=O)=O)cc2)c(C)[nH]c1=O [Example 6, 4-(5-ethyl-2-methyl-6-oxo-1,6-dihydropyridin-3-ylamino)benzenesulfonamide] | 9.8
CCc1cc(Nc2ccc(Oc3cccnc3)cc2)c(C)[nH]c1=O [Example 7, 3-ethyl-6-methyl-5-[4-(pyridin-3-yloxy)phenylamino]-1H-pyridin-2-one] | 4.7
CCc1cc(Nc2ccc3c(c2)N(C(C)=O)CC3)c(C)[nH]c1=O [Example 9, 5-(1-acetyl-2,3-dihydro-1H-indol-6-ylamino)-3-ethyl-6-methyl-1H-pyridin-2-one] | 3.4
CCc1cc(Nc2ccc(S(=O)(=O)Nc3ccccn3)cc2)c(C)[nH]c1=O [Example 10, 4-(5-ethyl-2-methyl-6-oxo-1,6-dihydropyridin-3-ylamino)-N-pyridin-2-yl-benzenesulfonamide] | 6.2
CCc1cc(Nc2ccc(NC(C)=O)cn2)c(C)[nH]c1=O [Example 12, N-[6-(5-ethyl-2-methyl-6-oxo-1,6-dihydropyridin-3-ylamino)pyridin-3-yl]-acetamide] | 1.1
CCc1cc(Nc2ccc(C(C)=O)cc2)c(C)[nH]c1=O [Example 18, 5-(4-acetylphenylamino)-3-ethyl-6-methyl-1H-pyridin-2-one] | 4.4
CCc1cc(Nc2cccnc2)c(C)[nH]c1=O [Example 19, 3-ethyl-6-methyl-5-(pyridin-3-ylamino)-1H-pyridin-2-one] | 9.2
CCc1cc(Oc2cccc(OC)c2)c(C)[nH]c1=O [Example 20, 3-ethyl-5-(3-methoxyphenoxy)-6-methyl-1H-pyridin-2-one] | 4.8
CCc1cc(Nc2cccc(S(C)(=O)=O)c2)c(C)[nH]c1=O [Example 24, 3-ethyl-5-(3-methanesulfonylphenylamino)-6-methyl-1H-pyridin-2-one] | 6.1
